Key:
Pseudomonas aeruginosa = assay: Clearance of bacteria in vitro by alveolar macrophages (PA); format: cell-based
Protocol: (§1) Human alveolar macrophages were purified from individual BAL samples by centrifugation and seeded onto 6-well tissue culture plates. After incubation for 2 h, non-adherent cells were removed and the adherent cells were incubated with R, S-sulforaphane (5 μM; LKT Laboratories, Inc., St. Paul, Minn.) and or DMSO in RPMI 1640 culture medium with 10% FBS and 1% penicillin-streptomycin (Invitrogen, Carlsbad, Calif.). After 16-20 h, adherent cells were scraped, suspended in RPMI 1640 culture media and plated onto 96-well tissue culture plates for bacterial phagocytosis and clearance assays. […] For MARCO antibody-depletion, alveolar macrophages were incubated with human anti-MARCO antibody (1 μg/ml; (Hycult, Uden, The Netherlands) for 4 hours prior to bacterial challenge.
Sputum isolates of nontypeable H. influenzae and P. aeruginosa obtained from patients with COPD at the Department of Veterans Affairs, Western New York Healthcare System were used (S. Sethi, N. Evans, B. J. Grant, T. F. Murphy, N Engl J Med 347, 465 (Aug. 15, 2002); C. S. Berenson, M. A. Garlipp, L. J. Grove, J. Maloney, S. Sethi, J Infect Dis 194, 1375 (Nov. 15, 2006); T. F. Murphy et al., Am J Respir Crit Care Med 177, 853 (Apr. 15, 2008); T. F. Murphy, A. L. Brauer, A. T. Schiffmacher, S. Sethi, Am J Respir Crit Care Med 170, 266 (Aug. 1, 2004)). For bacterial growth, H. influenzae was cultured on chocolate agar or grown in brain heart infusion broth supplemented with 20 μg/mlNAD and 10 μg/ml hemin at 35° C. in 5% CO2. P. aeruginosa was cultured on LB agar plates or in LB broth at 37° C. For FITC-labeling of bacteria, heat inactivated PA and NTHI (10^9 CFU/ml) were resuspended in 1 ml of labeling buffer (0.1 M NaHCO3, pH 9.2) and incubated with fluorescein isothiocyanate (FITC) (Sigma) under constant stiffing in the dark at room temperature for 1 h. Finally, bacteria were washed three times with PBS and dialyzed overnight against PBS. FITC-labeled bacteria were resuspended with PBS at a concentration of 10^9/ml.
After treatment, macrophages (10^5 cells) were incubated with bacteria (PA or NTHI) for 4 h. Subsequently, 100 μL of cell free culture medium was aseptically plated and cultured on tryptose blood and or chocolate agar plates at 37° C. The number of bacterial colonies was counted after 24 h.

[1] = test system: secretory leukocyte protease inhibitor (SLPI); conditions: alveolar macrophages of patients with COPD, treated with or without sulforaphane
Protocol: as §1

HDAC2 = conditions: CSC-exposed PMs
Protocol: Mice (C57BL/6 strain, 8-10 weeks old) were used for the studies. Exposure to CS (1 month) was carried out as described previously (Malhotra, D., et al., Am J Respir Crit Care Med 178, 592-604 (2008)). Residential peritoneal macrophages (PMs) isolation was carried out as described previously (Singh, A., et al., PLoS Med 3, e420 (2006)). Alveolar macrophages from mouse were isolated from bronchoalveolar lavage (BAL) fluid (Crimi, E., et al., Free Radic Biol Med 40, 398-406 (2006)).
(§2) For inducing corticosteroid resistance, PMs were exposed to cigarette smoke condensate (CSC, 100 μg/ml; Murty Pharmaceuticals, Lexington, Ky.) for 16 h. Exposure to S-nitrosoglutathione (GSNO, 10 μM) was limited to 4 h. […] For assessing corticosteroid responsiveness, macrophages were incubated with dexamethasone (1 μM, Sigma) for 1 h followed by LPS (100 ng/ml, Sigma) for additional 4 h.

IL-8 = assay: Corticosteroid responsiveness: basal and LPS-induced IL-8 secretion by alveolar macrophages; format: cell-based, human
Protocol: as §2
For human IL-8 and mouse IL-6 and MCP-1 proteins, Quantikine ELISA kits from R&D systems (Minneapolis, Minn.) were used according to the manufacturer's instructions.

glucocorticoid receptor = assay: Acetylated glucocorticoid receptor levels in alveolar macrophages; format: cell-based, human; conditions: compared to vehicle control
Protocol: All immunoblots were performed by using protocols as described previously (Barnes, P. J., N Engl J Med 343, 269-280 (2000)). Rabbit anti-HDAC2 antibody from Santa Cruz Biotechnology (Santa Cruz, Calif.) was used at 1:500 dilutions. Rabbit anti-5-nitroso-cysteine antibody from Alpha diagnostics was used at 1:500 dilutions. Rabbit anti-nitro-tyrosine antibody from Cell Signaling Technology, was used at 1:250 dilution. Rabbit anti-ubiquitin antibody from Santa Cruz Biotechnology (Santa Cruz, Calif.) was used at 1:1000 dilutions. Rabbit anti-GR antibody from Santa Cruz Biotechnology (Santa Cruz, Calif.) was used at a dilution of 1:1000. Rabbit anti-MMP9 antibody from Sigma Aldrich was used at 1:500 dilutions. Rabbit anti-acetyl-lysine antibody from Abcam was used at 1:750 dilutions. Rabbit anti-lamin-B1 from Santa Cruz Biotechnology (Santa Cruz, Calif.) was used at 1:1000 dilutions as a loading control. The Image J program was used for densitometry analyses.

C[S+]([O-])CCCCN=C=S (stereo not drawn) [sulforaphane]
clearance of Pseudomonas aeruginosa (decrease in CFU in culture medium) (Pseudomonas aeruginosa; COPD alveolar macrophages, compared to vehicle, 4 h with bacteria): 40-95% | bacterial clearance (Pseudomonas aeruginosa; alveolar macrophages from non-COPD subjects): significantly enhanced bacterial clearance | bactericidal activity towards Pseudomonas aeruginosa (Pseudomonas aeruginosa; cell-free medium with sulforaphane alone): no bactericidal activity | SLPI levels in cell free media [1]: greater levels of SLPI | levels of SNO-HDAC2 (HDAC2): significant reduction in the levels of SNO-HDAC2 | DEX sensitivity (histone acetylation on IL-8 promoter, IL-8 expression) (IL-8; in the presence of buthionine sulfoximine (BSO)): failed to improve DEX sensitivity | IL-8 levels (IL-8; sulforaphane alone, basally and after LPS treatment): significantly reduced IL-8 levels | DEX's inhibitory effect on basal and LPS-induced IL-8 secretion (fold reduction) (IL-8; sulforaphane treatment then DEX, P<0.01, N=25 patients): 5 fold | levels of acetylated-glucocorticoid receptor (glucocorticoid receptor): significant decrease in the levels of acetylated-glucocorticoid receptor

From patent US20130039928A1, “COMPOSITIONS AND METHODS FOR REVERSING CORTICOSTEROID RESISTANCE OR TREATING RESPIRATORY INFECTIONS” (priority 2010, published 2013)
